In PubChem BioAssay (NCI):
“And” between values parts separate entries of the source, which are not always exact repeats. Equal entries are not always repeated.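 Tested at 5 concentrations; 48 h exposure; 96-well plates; endpoints linearly interpolated, else capped at highest concentration. GI50 marks 50% less growth. TGI: total growth inhibition.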

Key:
Assay in all cases: DTP human tumour cell line panel, 48 h
EKVX NSCLC = system: EKVX NSCLC
SK-MEL-2 melanoma = system: SK-MEL-2 melanoma
HOP-62 NSCLC = system: HOP-62 NSCLC
786-0 renal = system: 786-0 renal
CAKI-1 renal = system: CAKI-1 renal
UO-31 renal = system: UO-31 renal
NCI-H226 lung = system: NCI-H226 lung
OVCAR-4 ovarian = system: OVCAR-4 ovarian
MDA-MB-435 = system: MDA-MB-435
T-47D breast = system: T-47D breast
MDA-MB-231 breast = system: MDA-MB-231 breast

SMILES	TGI (EKVX NSCLC) [µM]	TGI (SK-MEL-2 melanoma) [µM]	TGI (HOP-62 NSCLC) [µM]	TGI (786-0 renal) [µM]	TGI (CAKI-1 renal) [µM]	TGI (UO-31 renal) [µM]	TGI (NCI-H226 lung) [µM]	TGI (OVCAR-4 ovarian) [µM]	TGI (MDA-MB-435)	TGI (T-47D breast) [µM]	TGI (MDA-MB-231 breast)	GI50 (CAKI-1 renal) [pM]	GI50 (MDA-MB-435) [µM]	GI50 (T-47D breast) [µM]
Nc1ccc2ncc(Nc3ccc(Cl)c(Cl)c3)nc2c1	88.9	> 100	84.3	> 100	67.3	> 100	62.6	> 100						
Cc1[nH]n(C(=O)c2ccc(Cl)cc2)c(=O)c1/C=C1\C(O)=CC(=O)c2ccccc21	> 100	> 100	> 100	> 100	> 100	> 100		> 100						
Nn1c(=S)[nH]nc(/C=C/c2c(O)ccc3ccccc23)c1=O	20.9	> 100	62.8	> 100	36.1	34.8		25	> 100 µM	31.9				
COC(=O)c1ccccc1NCc1cc(O)ccc1O	> 68.1	58.3	> 71.4	31.7	44.6	31.9	65.3	34.9	34.2 µM	31.8				
CCN(CCCl)c1ccc(NC(=O)c2cc(C(=O)NCCN(C)C)cc(C(=O)Nc3ccc(N(CC)CCCl)cc3)c2)cc1		44.1	16.4	3.12	> 100	> 100	25.1	43.5	33.9 µM	53.9	34.9 µM			
N/N=C(\N)SCc1ccc(N=C=S)cc1	> 100	> 100	> 100	> 100	> 100	> 100		> 100	> 100 µM	> 100	> 100 µM			
CN1OC(CO)CC12C1CC3CC(C1)CC2C3 (stereo not given)		> 100	> 100	> 100	> 100	> 100		> 100						
CCc1nc2cc(F)ccc2[nH]c1=O	> 100	> 100	> 100	> 100	> 100	> 100	> 100	> 100	> 100 µM		> 100 µM			
FC(F)(Sc1nc2ccccc2[nH]1)c1nc2ccccc2o1		> 100	> 100	> 100	> 100	> 100	> 100	> 100	> 100 µM	> 100	> 100 µM			
CCN(CC)CCCNc1nnc(C)c2[nH]c3ccccc3c12	63.4	33.3	35.5	94	> 100	> 100			25.9 µM	68.9	39.5 µM			
NNC(=O)COc1nc(-c2cccs2)nc2ccc(I)cc12	71	71.3	75.6	78.8	44.1	63.5	83.9	77	47 µM	21.9				
Cc1ccc(C(=O)C2CC3(CCC2(O)c2ccc(C)cc2)CC(=O)Nc2ccccc2C3=O)cc1 (stereo not given)	> 100	> 100	> 100		> 100	> 100	> 100		> 100 µM	> 100	> 100 µM			
CCCCCCCCCCCC1=C(O)C(=O)C=C(O)C1=O	15.6	12.5	12.3		15.7	14	15.4	33.2						
CC(=O)Oc1cc(OC(C)=O)c2c(c1C)CC[C@@H]1[C@@H]2CC[C@]2(C)[C@@H](OC(C)=O)CC[C@@H]12	28		36	34.8	52.1	31.4	34.2		31.3 µM		30.5 µM			
NS(=O)(=O)C1CCCCC1C(=O)NNC(=O)C(=O)Nc1nc(=S)[nH][nH]1 (stereo not given)	> 100	> 100	> 100		> 100	> 100	> 100	> 100						
Nc1nc2c(ccc3ccccc32)[nH]1	> 10	> 10	> 10		> 10	> 10	> 10	> 10	> 10 µM	> 10	> 10 µM			
COC1=C(C)C(=O)C2=C(C1=O)C1C3CC4=C(C(=O)C(OC)=C(C)C4=O)C(CNC(=O)C(C)=O)N3C(C#N)C(C2)N1C (stereo not given)					0.126				0.00124 µM and 0.00553 µM	0.00608	0.0127 µM and 0.0154 µM	1.63	0.00034	0.000553
O=C1Cc2c([nH]c3c(Br)cccc23)-c2ccccc2N1	> 100	> 100	> 100	> 100		> 100	> 100		> 100 µM	> 100	> 100 µM			
Nc1nc(Nc2cc(F)c(Cl)c(F)c2)cc(=O)[nH]1	> 100	> 100	> 100	> 100	> 100		> 100	> 100	> 100 µM	> 100	> 100 µM			
O=C(c1ccccc1)n1c2ccc(Br)cc2c2nc3ccccc3nc21	> 100	> 100	> 100	> 100	> 100	> 100	> 100	> 100	> 100 µM		> 100 µM			
CC(C)=C[C@@H]1C[C@H](C)[C@H]2CC[C@H](C)[C@H]3C(=O)C(O)=C(C)C(=O)[C@]123	> 100		> 100	> 100	> 100	> 100	> 100	> 100	> 100 µM		> 100 µM			
CCc1n[nH]c(=O)n1-c1ccncc1	> 100		> 100	> 100	> 100	> 100	> 100	> 100	> 100 µM	> 100	> 100 µM			
C(/Cc1ccc2c(c1)OCO2)=N\NC1=NCCCCN1	> 100	> 100	> 100	> 100		> 100	> 100	> 100	> 100 µM	> 100	> 100 µM			
